How the values were obtained:
GTP cyclohydrolase I = conditions: cited from earlier work; for potency as GTP cyclohydrolase I inhibitor relative to oxidized pterins: more potent than oxidized pterins; for Ki: read-out: Ki, noncompetitive inhibitor of GTP cyclohydrolase I
SNI model = assay: SNI model, L-NAME versus DAHP; type: in vivo
Method: In this figure, closed circles represent nNOS knockout mice with DAHP; open circles, nNOS knock out mice with vehicle; closed triangles, wild type mice with DAHP; and open triangles, wild type mice with vehicle. […] In this figure, closed triangles represent L-NAME administration; open circles, L-NAME+DAHP administration; closed circles, DAHP administration; and open triangles, vehicle administration. L-NAME was administered at 25 mg/kg, i.p., single dose, and DAHP was administered at 120 mg/kg, i.p., single dose. The antinociceptive efficacy of this high L-NAME dose is weaker (about 50%) than that of a moderate dose of DAHP.

sepiapterin reductase = conditions: cited from earlier work
[1] = tested on: CFA-induced paw inflammation; assay: CFA model of inflammatory pain: Hargreaves test and paw weight; type: in vivo, rat; conditions: NAS 50 mg/kg i.p.
Method: FIGS. 11A-11E are a series of graphs showing the effect of DHAP on thermal hyperalgesia in the CFA model which is a model for inflammatory pain. […] On the left end of the graph, two doses of DAHP (180 mg/kg i.p.) were injected, the first 30 minutes before injection of CFA into the hindpaw, the second 4 hours after CFA (indicated with arrows D1 and D2). On the right, a single dose (dotted arrow D1) of DAHP (180 mg/kg i.p.) was injected 24 h after induction of paw inflammation without any treatment during the first 24 h following CFA injection. […] In FIGS. 11C-11D, the effects of systemically administered DAHP (180 mg/kg i.p. single dose; 11C) are compared with the effects of a single intrathecal dose (1 mg/kg i.t.; 11D) which was administered via a lumbar spinal catheter. In both cases, treatment was started 24 hours after CFA injection into the hindpaw. Because of slightly different baseline levels (11C compared with 11D) effects of DAHP after i.p. and i.t. treatment are additionally presented as percentage change of paw withdrawal latency (FIG. 11E) to allow for a direct comparison of both routes of administration.
FIG. 12 is a bar graph showing the increase of the paw weight of the inflamed paw compared with the contralateral paw. Paw weight was determined 48 hours following CFA injection. The increase of the paw weight is a measure for the inflammatory paw edema and therefore allows assessment of paw inflammation.
FIGS. 15A and 15B show the effect of the sepiapterin reductase inhibitor, N-acetyl-serotonin (NAS) on thermal hyperalgesia in the CFA model. The paw withdrawal latency (PWL) to radiant heat (Hargreaves test) is a measure for the heat sensitivity. NAS treatment (single dose of 50 mg/kg i.p.) was started 24 hours after CFA injection into the hindpaw. Data are presented as percentage change of the PWL compared with the PWL of the non-inflamed contralateral paw. […] Paw weight was determined 48 hours following CFA injection. The increase of the paw weight is a measure for the inflammatory paw edema.
Hypersensitivity was induced using the CFA model of paw inflammation. In these experiments, BH4 was injected at time “zero” after measurement of baseline paw withdrawal latency.

[2] = tested on: SNI model of neuropathic pain; assay: Spared nerve injury (SNI) model of neuropathic pain, von Frey and acetone tests; type: in vivo
Method: FIGS. 8A-8D represent a series of graphs showing the effect of DAHP on nociceptive behavior in the SNI model of neuropathic pain. Figures on the left show the threshold to mechanical stimuli applied with von Frey hairs (von Frey threshold). Figures on the right show the duration of paw licking, shaking and lifting following acetone application to the paw as a measure for cold allodynia. In FIG. 8A, rats were treated with DAHP (180 mg/kg/d i.p.) for three days starting three days after surgery (early treatment). Nociceptive behavior was assessed daily before and after drug injection. In FIG. 8B, the treatment period was extended to five days (180 mg/kg/d i.p.) starting three days after surgery and pain behavior was assessed daily before and after drug injection and once every second day for an additional week after stopping the daily drug injections. In FIG. 8C, treatment with DAHP (180 mg/kg/d i.p. for 5 days) was started 17 days after surgery i.e. in the chronic phase without any treatment in the early phase. Nociceptive behavior was assessed once daily 3 h after drug injection. In FIG. 8D, animals received a continuous spinal infusion of DAHP (6 mg/kg/d) for 14 days. The infusion was started directly after surgery. Nociceptive behavior was assessed once daily.
FIGS. 16A-16D show the effects of systemic (16A) and intrathecal (16B) treatment with methotrexate (MTX) on the nociceptive behavior in the SNI model of neuropathic pain. […] In FIG. 16A MTX (0.2 mg/kg/d) was injected i.p. once daily starting 5 days after SNI surgery. Nociceptive behavior was assessed once daily three hours after drug injection. In FIG. 16B, MTX was administered as continuous intrathecal infusion (0.1 mg/kg/d for 14 days) starting right after SNI surgery. Nociceptive behavior was assessed once daily. FIGS. 16C and 16D show the body weight gain of animals during systemic (16C) and intrathecal (16D) MTX treatment. Determination of the weight gain was used to assess general well-being and potential toxic effects of MTX.
In this graph, closed triangles represent vehicle, i.p.; open triangles represent DAHP at 90 mg/kg/day, i.p.; open squares represent DAHP at 180 mg/kg/day, i.p.; and open circles represent DAHP at 270 mg/kg/day, i.p.
All procedures were performed in accordance with Massachusetts General Hospital animal care regulations. Adult male Sprague Dawley rats (200-300 g) were anesthetized with halothane. For the sciatic nerve transection (axotomy), the left sciatic nerve was exposed at the mid thigh level, ligated with 3/0 silk, and sectioned distally. The wound was sutured in two layers, and the animals were allowed to recover. For SNI the tibial and peroneal branch of the sciatic nerve were ligated and transected whereas the sural nerve was spared. For CCI, the sciatic nerve was loosely ligated with dexon 4/0 (three ligatures) and for the spinal ligation model the L5 spinal segmental nerve was ligated.

[3] = systemically administered, low doses; cited from earlier work

C[C@H](O)[C@H](O)[C@@H]1CNc2nc(N)[nH]c(=O)c2N1 [6S-BH4]
effectiveness relative to BH4 (GTP cyclohydrolase I; feedback inhibition of GTPCH): more than one order of magnitude less effective

C[C@H](O)[C@H](O)C1=Nc2c(nc(N)[nH]c2=O)NC1 [7,8-dihydro-L-Biopterin]
potency as GTP cyclohydrolase I inhibitor relative to oxidized pterins (GTP cyclohydrolase I): approximately 12 times | Ki (GTP cyclohydrolase I): 14.4 µM

COC(=O)[C@@H](N)CCCNC(=N)N[N+](=O)[O-] [L-NAME, N^G-Nitro-L-arginine-methyl ester]
effect of L-NAME co-injection on efficacy of DAHP (SNI model; L-NAME 25 mg/kg i.p. + DAHP 120 mg/kg i.p.): does not further increase the efficacy of DAHP | antinociceptive efficacy relative to a moderate dose of DAHP (SNI model; L-NAME 25 mg/kg i.p. single dose, weaker than DAHP): about 50%

C[C@H](O)C(=O)C1=Nc2c(nc(N)[nH]c2=O)NC1 [L-Sepiapterin]
potency as GTP cyclohydrolase I inhibitor relative to oxidized pterins (GTP cyclohydrolase I): 12 times | IC50 (GTP cyclohydrolase I; read-out: IC50, GTP cyclohydrolase I inhibitor): 12.7 ± 1.8 µM

O=C(CCl)NCCc1ccc(O)c(O)c1 [N-Chloroacetyldopamine]
potency as sepiapterin reductase inhibitor relative to NAS (sepiapterin reductase): increased potency

O=C(CCl)NCCc1c[nH]c2ccc(O)cc12 [N-Chloroacetylserotonin]
potency as sepiapterin reductase inhibitor relative to NAS (sepiapterin reductase): increased potency

COCC(=O)NCCc1c[nH]c2ccc(O)cc12 [N-Methoxyacetylserotonin]
potency as sepiapterin reductase inhibitor relative to NAS (sepiapterin reductase): increased potency

CC(=O)NCCc1c[nH]c2ccc(O)cc12 [NAS, N-acetyl-serotonin]
CFA-induced inflammatory paw edema [1]: no effect | thermal hyperalgesia ([1]; 24 hours after CFA): reduction of thermal hyperalgesia

C[C@H](O)[C@H](O)[C@H]1CNc2nc(N)[nH]c(=O)c2N1 [Tetrahydro-L-biopterin]
Ki (GTP cyclohydrolase I): 15.7 µM

Nc1nc2nc[nH]c2c(=O)[nH]1 [guanine]
GTPCH inhibitory potency relative to DAHP (GTP cyclohydrolase I; higher potency than DAHP): approximately 10 fold

CN(Cc1cnc2nc(N)nc(N)c2n1)c1ccc(C(=O)N[C@@H](CCC(=O)O)C(=O)O)cc1 [methotrexate]
pain in response to mechanical and cold allodynia ([2]; MTX 0.2 mg/kg/d i.p. or 0.1 mg/kg/day continuous lumbar spinal delivery): reduction in pain | acute toxicity (body weight change over time) ([2]; MTX systemic or intrathecal): absence of detectable acute toxicity | blood brain barrier penetration [3]: does not penetrate the blood brain barrier

— patent publication US7906520B2, “Methods for treating pain” (The General Hospital Corporation, priority 2003, dated 2011)
